Structures can show the parent of a compound that is named as a salt.
Assays:
[1] = Unbound fraction in RT-S9 by rapid equilibrium dialysis; type: in vitro ADME, rainbow trout (Oncorhynchus mykiss); details: rainbow trout liver S9 fractions (RT-S9), 10 µM test substance, 1 mg/mL RT-S9, pH 7.8, 11°C, n = 3, read-out: Unbound fraction (fU,RT-S9)
Procedure: The unbound (free) fractions of the test substances in RT-S9 (fU,RT-S9) were determined using rapid equilibrium dialysis assay (RED, Thermo Fisher Scientific), which exploits two-compartment inserts separated by a dialysis membrane with a molecular weight cut-off of 8,000 Da. In the RED assay, each test pharmaceutical (10 μM) was incubated in triplicate with RT-S9 (1 mg/mL) in 50 mM potassium phosphate buffer (pH 7.8) in a total volume of 300 µL on one side of the membrane (protein-containing chamber), and 350 μL of the plain phosphate buffer on the other side (protein-free chamber). To reach equilibrium, the samples were incubated on an orbital shaker (C25KC Incubator shaker, New Brunswick Scientific, 120 rpm) at 11°C for 4 h. Next, 50 µL aliquots were collected from both chambers separately and diluted by adding 50 µL of the plain buffer (to the protein-containing sample) or 50 μL of 1 mg/mL RT-S9 in the buffer (to the protein-free sample). Finally, the RT-S9 protein was precipitated by the addition of acetonitrile (+200 μL) to both samples separately, followed by incubation on ice for 30 min and centrifugation (16100 g, 15 min). The test substance concentrations in the supernatants of both samples were determined using liquid chromatography. The instrumentation and the analytical methods used for chromatographic analyses are described in detail in the Supplementary Table S2. The unbound fractions of the test substances in RT-S9 (fU,RT-S9) were calculated according to Eq. 3: fU,RT−S9=1− PC−PF/PC (3) where [PC] and [PF] are the test substance concentrations in the samples collected from protein-containing and protein-free chambers, respectively. To account for the test substance’s binding to the RT-S9, the nominal IC50 values were corrected for unbound fraction (fU,RT-S9) according to Eq. 4: Unbound IC50=Nominal IC50×fU,RT−S9 (4)

[2] = parameters: method as in Chemaxon; details: pH 7.8; (e) empirical; ref Chemaxon; cited from earlier work
[3] = system: CYP1A-like EROD activity; assay: in vitro; details: both, Christophersen, Bornhoeved, rainbow trout (Oncorhynchus mykiss)
Procedure: (§1) Commercially available rainbow trout (O. mykiss) liver S9 fractions were used as the enzyme source for the in vitro P450 inhibition assays (RTL-S9, total protein concentration 20 mg/mL, Primacyt Cell Culture Technology GmbH).
(§2) The inhibitory impacts of the test substances toward the rainbow trout liver P450 system in vitro were assessed based on EROD and BFCOD as the marker reactions for CYP1A- and CYP3A-like isoenzyme activities, respectively. […] In this study, the EROD (CYP1A) and BFCOD (CYP3A) activities were determined using 0.5 mg/mL RT-S9 (total protein) concentration and 1 or 2 mM NADPH, respectively. […] All incubations were performed in duplicate in a total volume of 100 µL of potassium phosphate buffer (0.1 M, pH 7.8), at 11°C ± 1°C on a thermostated orbital shaker (LLG Labware). The reactions were terminated by the addition of 37.5 μL of the quenching solution (0.5 M Trizma base/acetonitrile 20:80, v/v). […] The quantitation of the metabolites (resorufin or HFC) was based on linear regression of the respective standards prepared in the potassium phosphate buffer. Negative control incubations were performed separately without the marker substrate, without cofactors, and without RT-S9 to ensure that the detected fluorescence signals arise from the metabolic conversion of the marker substrates (ER or BFC) into their respective metabolites (resorufin or HFC, respectively).
(§3) In this study, the preincubation was performed using three different protocols A-C (Table 2). In the first protocol, the test substance (each separately at six different concentrations between 0.01 and 500 µM) and RT-S9 were preincubated without any cofactors, and the marker reaction was initiated by the addition of the marker substrate (ER or BFC) and NADPH (Protocol A). This enabled the determination of the inhibitory impact of the parent form of the test substance on the respective marker activity. In the second protocol, the test substance and RT-S9 were preincubated together with NADPH, and the marker reaction was initiated by the addition of the marker substrate (Protocol B). In this manner, the test substance could undergo P450 metabolism already during the preincubation step, which may reduce its concentration and thus the inhibitory impact toward the marker reactions, or result in the formation of reactive or inhibitory metabolites, which typically increases the inhibitory impact compared with the parent form (Protocol A). […] In this manner, the test substance could undergo both P450 and phase II metabolism already during the preincubation step, which may likewise reduce its concentration and inhibitory impact toward the marker reactions, and even help eliminate the possible reactive metabolites via glutathione conjugation. […] Additionally, positive control incubations of the marker substrates (ER or BFC) without the test substance (zero inhibitor concentration) were included in each series to determine the basal EROD or BFCOD activity in RT-S9.
(§4) The residual solvent concentration was kept constant at all inhibitor concentrations, including zero, to eliminate its impact on the IC50 concentrations derived from the empirical data. The IC50 shifts for Protocols B and C were calculated according to Eq. 2: IC50 shift=IC50,Protocol A/IC50,Protocol B or Protocol C (2)
(§5) In this manner, the impact of the test substance’s own metabolism (during the preincubation step) on the inhibitory impact could be evaluated.

[4] = system: CYP1A-like ethoxyresorufin O-deethylase (EROD) activity in rainbow trout liver S9 fractions; assay: in vitro
Procedure: as §1, §2, §3, §4, §5

[5] = system: CYP1A-like ethoxyresorufin O-deethylase (EROD) activity; assay: in vitro; details: both, Christophersen, Bornhoeved, rainbow trout (Oncorhynchus mykiss); for inhibition at 10 min: pH 7.8
Procedure: as §1, §2, §3, §4, §5

[6] = biological target: T1, CYP3A-like 7-benzyloxy-4-trifluoromethylcoumarin O-debenzylase (BFCOD) activity in rainbow trout liver S9 fractions (Oncorhynchus mykiss, UniProt O42563); assay: BFCOD inhibition in RT-S9 (IC50 shift assay); details: within the tested concentration range
T1 sequence (O42563 1-518): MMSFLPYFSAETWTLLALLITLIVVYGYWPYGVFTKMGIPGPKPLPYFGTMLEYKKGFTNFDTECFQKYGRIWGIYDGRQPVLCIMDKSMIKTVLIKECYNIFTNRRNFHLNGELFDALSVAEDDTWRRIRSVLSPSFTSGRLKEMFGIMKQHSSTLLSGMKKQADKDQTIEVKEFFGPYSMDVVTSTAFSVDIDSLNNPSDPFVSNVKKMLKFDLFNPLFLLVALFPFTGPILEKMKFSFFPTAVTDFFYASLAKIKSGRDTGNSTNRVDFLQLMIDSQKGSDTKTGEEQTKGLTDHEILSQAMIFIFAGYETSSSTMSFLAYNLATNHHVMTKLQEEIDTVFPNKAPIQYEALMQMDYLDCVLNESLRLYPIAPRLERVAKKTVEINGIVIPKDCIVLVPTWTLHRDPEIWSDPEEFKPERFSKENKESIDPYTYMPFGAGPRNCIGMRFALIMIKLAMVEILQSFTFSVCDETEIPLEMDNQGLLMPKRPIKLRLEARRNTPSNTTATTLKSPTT
Procedure: as §1, §2, §3, §4, §5

[7] = biological target: T2, CYP3A-like BFCOD activity (Oncorhynchus mykiss, UniProt O42563); assay: BFCOD inhibition in RT-S9 (IC50 shift assay); details: both, Christophersen, Bornhoeved, rainbow trout (Oncorhynchus mykiss), s9, pH 7.8
T2 sequence (O42563 1-518): T1 sequence (O42563 1-518)
Procedure: as §1, §2, §3, §4, §5

[8] = parameters: method as in PubChem; details: (e) empirical; ref PubChem; cited from earlier work
[9] = system: Human CYP1A; details: ref Drugbank unless otherwise stated (Dragovic et al., 2013; Conard and Ober 1984; Niwa et al., 2005); cited from earlier work
[10] = pH 7.8, EROD inhibition in RT-S9, Nominal IC50

Row | Compound | fraction unbound at 4 h, 10 µM [1] | Water solubility [2] | IC50 shift at 10 min ([3]; s9, pH 7.8, EROD inhibition in RT-S9, IC50 shift (A/B)) | IC50 shift at 10 min ([3]; s9, pH 7.8, EROD inhibition in RT-S9, IC50 shift (A/C)) | EROD inhibition in RT-S9 (in words) [4] | inhibition at 10 min [5] [%] | IC50 at 10 min [5, 10] [µM] | IC50 at 10 min ([5]; pH 7.8, EROD inhibition in RT-S9, Unbound IC50) [µM] | BFCOD inhibition in RT-S9 (in words) [6] | IC50 at 20 min [7] [µM] | LogKOW [8] | Human CYP1A interactions: substrate status [9] | IC50 [4] [µM]
1 | CNCC[C@@H](Oc1ccccc1C)c1ccccc1 [Atomoxetine, atomoxetine hydrochloride] | 0.2 ± 0.03 | 27.8 (e) mg/mL | 0.9 ± 0.1 | 1.1 | inhibited selectively only EROD activity | ≤ 50 | > 100 | 20 ± 4 | did not significantly inhibit | > 25 |  |  | 
2 | CN(C)CCc1c[nH]c2ccc(C[C@H]3COC(=O)N3)cc12 [Zolmitriptan, zolmitriptan] |  |  |  |  |  |  |  |  | did not significantly inhibit |  | 1.792 (e) | Substrate | 
3 | O=C(NCC1CCCCN1)c1cc(OCC(F)(F)F)ccc1OCC(F)(F)F (stereo not drawn) [Flecainide, flecainide acetate] | 0.36 ± 0.03 |  |  |  | inhibited selectively only EROD activity | ≤ 50 | > 100 |  | did not significantly inhibit | > 25 |  | Substrate | 82 ± 14

From paper PMC11284600, “Many human pharmaceuticals are weak inhibitors of the cytochrome P450 system in rainbow trout (Oncorhynchus mykiss) liver S9 fractions” (Frontiers in Toxicology, 2024)
